In patent publication US10039759B2, “Quinolines as FGFR kinase modulators” (priority 2011, dated 2018):
Structures can show the parent of a compound that is named as a salt.

Assays:
FGFR3 (h) = FGFR3 (h) (Homo sapiens, UniProt P22607); assay: FGFR3 (enzymatic assay), TR-FRET; type: biochemical; conditions: 25 μM ATP, 60 min; pIC50 = -log IC50 (M); average if tested multiple times; read-out: hFGFR 3 pIC50 (converted)
KDR (h) = KDR (h) (Homo sapiens, UniProt P35968); assay: KDR (VEGFR2) (enzymatic assay), TR-FRET; type: biochemical; conditions: 3 μM ATP, 120 min; pIC50 = -log IC50 (M); average if tested multiple times; read-out: VEGFR KDR pIC50 (converted)
Description: KDR (VEGFR2) (Enzymatic Assay)
In a final reaction volume of 30 μL, KDR (h) (150 ng/ml) was incubated with 50 mM HEPES pH 7.5, 6 mM MnCl2, 1 mM DTT, 0.1 mM Na3VO4, 0.01% Triton-X-100, 500 nM Btn-Flt3 and 3 μM ATP in the presence of compound (1% DMSO final). After incubation for 120 minutes at room temperature the reaction was stopped with 2.27 nM EU-anti P-Tyr, 7 mM EDTA, 31.25 nM SA-XL-665 and 0.02% BSA which was present for 60 minutes at room temperature. Time-Resolved Fluorescence Resonance Energy Transfer (TR-FRET) signal (ex340 nm. Em 620 nm, em 655 nm) was measured afterwards and results are expressed in RFU (Relative Fluorescence Units). In this assay, the inhibitory effect of different compound concentrations (range 10 μM to 0.1 nM) was determined and used to calculate an IC50 (M) and pIC50 (−log IC50) value.

FGFR2 (h) = FGFR2 (h) (Homo sapiens, UniProt P21802); assay: FGFR2 (enzymatic assay), TR-FRET; type: biochemical; conditions: 0.4 μM ATP, 60 min; pIC50 = -log IC50 (M); average if tested multiple times; read-out: FGFR 2 pIC50 (converted)
[1] = molecular target: Ba/F3-FGFR4-transfected cells (Homo sapiens, UniProt P22455); assay: Ba/F3-FGFR4 cellular proliferation assay, Alamar Blue; type: cell-based; conditions: 24 hours
Description: Ba/F3-FGFR4 (Cellular Proliferation Assay)
(§1) In a 384 well plate, 100 nl of compound dilution in DMSO was sprayed before adding 50 μl cell culture medium (phenol red free RPMI-1640, 10% FBS, 2 mM L-Glutamine and 50 μg/ml Gentamycin) containing 20000 cells per well of Ba/F3-FGFR4-transfected cells. Cells were put in an incubator at 37° C. and 5% CO2. After 24 hours, 10 μl of Alamar Blue solution (0.5 mM K3Fe(CN)6, 0.5 mM K4Fe(CN)6, 0.15 mM Resazurin and 100 mM Phosphate Buffer) was added to the wells, incubated for 4 hours at 37° C. and 5% CO2 before RFU's (Relative Fluorescence Units) (ex. 540 nm., em. 590 nm.) were measured in a fluorescence plate reader.
In this assay, the inhibitory effect of different compound concentrations (range 10 μM to 0.1 nM) was determined and used to calculate an IC50 (M) and pIC50 (−log IC50) value.

[2] = molecular target: T1, Ba/F3-FGFR1-transfected cells (Homo sapiens, UniProt P11362, cells depend on it, form not given); assay: Ba/F3-FGFR1 (minus IL3 or plus IL3) cellular proliferation assay, Alamar Blue; type: cell-based; conditions: minus IL3, 24 hours
T1 construct: other: minus IL3; 24 hours, Alamar Blue
Description: Ba/F3-FGFR1 (Minus IL3 or Plus IL3) (Cellular Proliferation Assay)
as §1, with “Ba/F3-FGFR1-transfected” for “Ba/F3-FGFR4-transfected”
(§2) In this assay, the inhibitory effect of different compound concentrations (range 10 μM to 0.1 nM) was determined and used to calculate an IC50 (M) and pIC50 (−log IC50) value. As a counterscreen the same experiment was performed in the presence of 10 ng/ml murine IL3.

[3] = molecular target: T2, Ba/F3-FGFR3-transfected cells (Homo sapiens, UniProt P22607, cells depend on it, form not given); assay: Ba/F3-FGFR3 (minus IL3 or plus IL3) cellular proliferation assay, Alamar Blue; type: cell-based; conditions: minus IL3; 24 hours, Alamar Blue
T2 construct: BAF3-FGFR3 (MIN IL3 Alamar Blue- pIC50); other: minus IL3; 24 hours, Alamar Blue
Description: (§3) Ba/F3-FGFR3 (Minus IL3 or Plus IL3) (Cellular Proliferation Assay)
as §1, with “Ba/F3-FGFR3-transfected” for “Ba/F3-FGFR4-transfected”
as §2

[4] = molecular target: T3, Ba/F3-KDR-transfected cells (Homo sapiens, UniProt P35968, cells depend on it, form not given); assay: Ba/F3-KDR (minus IL3 or plus IL3) cellular proliferation assay, Alamar Blue; type: cell-based; conditions: minus IL3; 24 hours, Alamar Blue
T3 construct: BAF3-KDR (MIN IL3 Alamar Blue pIC50); other: minus IL3; 24 hours, Alamar Blue
Description: (§4) Ba/F3-KDR (Minus IL3 or Plus IL3) (Cellular Proliferation Assay)
as §1, with “Ba/F3-KDR-transfected” for “Ba/F3-FGFR4-transfected”
as §2

[5] = tested on: Ba/F3-FGFR3-transfected cells; assay: Ba/F3-FGFR3 (minus IL3 or plus IL3) cellular proliferation assay, Alamar Blue; type: cell-based; conditions: plus IL3 (10 ng/ml murine IL3, counterscreen); 24 hours, Alamar Blue; read-out: BAF3-FGFR3 (PLUS IL3 Alamar Blue pIC50) (converted)
Description: as §3
as §1, with “Ba/F3-FGFR3-transfected” for “Ba/F3-FGFR4-transfected”
as §2

FGFR4 (h) = FGFR4 (h) (Homo sapiens, UniProt P22455); assay: FGFR4 (enzymatic assay), TR-FRET; type: biochemical; conditions: FGFR 4 pIC50, 5 μM ATP, 60 min; pIC50 = -log IC50 (M); average if tested multiple times
[6] = tested on: Ba/F3-KDR-transfected cells; assay: Ba/F3-KDR (minus IL3 or plus IL3) cellular proliferation assay, Alamar Blue; type: cell-based; conditions: plus IL3 (10 ng/ml murine IL3, counterscreen); 24 hours, Alamar Blue; read-out: BAF3-KDR (PLUS IL3 Alamar Blue pIC50) (converted)
Description: as §4
as §1, with “Ba/F3-KDR-transfected” for “Ba/F3-FGFR4-transfected”
as §2

FGFR1 (h) = FGFR1 (h) (Homo sapiens, UniProt P11362); assay: FGFR1 (enzymatic assay), TR-FRET; type: biochemical; conditions: FGFR 1 pIC50, 5 μM ATP, 60 min; pIC50 = -log IC50 (M); average if tested multiple times
Sequence of FGFR1 (h) (P11362 22-822): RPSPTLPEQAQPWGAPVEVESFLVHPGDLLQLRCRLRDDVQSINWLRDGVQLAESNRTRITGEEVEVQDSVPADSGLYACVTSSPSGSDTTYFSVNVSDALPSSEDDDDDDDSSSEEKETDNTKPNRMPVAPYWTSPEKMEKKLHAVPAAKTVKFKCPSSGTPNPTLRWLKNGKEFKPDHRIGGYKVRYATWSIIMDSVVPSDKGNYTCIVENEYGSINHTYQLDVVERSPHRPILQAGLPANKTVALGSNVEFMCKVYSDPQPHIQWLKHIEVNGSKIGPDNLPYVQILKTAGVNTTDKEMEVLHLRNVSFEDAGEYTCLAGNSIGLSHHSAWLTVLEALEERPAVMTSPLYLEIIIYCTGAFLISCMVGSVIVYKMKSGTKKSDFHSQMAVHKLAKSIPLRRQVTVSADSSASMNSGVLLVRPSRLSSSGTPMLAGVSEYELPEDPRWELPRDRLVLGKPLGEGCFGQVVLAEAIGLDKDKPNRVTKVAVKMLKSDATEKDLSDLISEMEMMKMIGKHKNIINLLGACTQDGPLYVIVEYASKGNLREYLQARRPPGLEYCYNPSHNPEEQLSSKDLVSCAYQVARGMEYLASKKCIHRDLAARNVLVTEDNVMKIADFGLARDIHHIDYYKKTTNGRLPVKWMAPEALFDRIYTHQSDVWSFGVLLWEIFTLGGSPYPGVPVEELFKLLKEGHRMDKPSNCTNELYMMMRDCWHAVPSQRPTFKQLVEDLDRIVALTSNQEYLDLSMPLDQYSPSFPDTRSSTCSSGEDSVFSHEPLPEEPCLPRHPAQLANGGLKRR

T1 sequence (P11362 whole entry, change not shown): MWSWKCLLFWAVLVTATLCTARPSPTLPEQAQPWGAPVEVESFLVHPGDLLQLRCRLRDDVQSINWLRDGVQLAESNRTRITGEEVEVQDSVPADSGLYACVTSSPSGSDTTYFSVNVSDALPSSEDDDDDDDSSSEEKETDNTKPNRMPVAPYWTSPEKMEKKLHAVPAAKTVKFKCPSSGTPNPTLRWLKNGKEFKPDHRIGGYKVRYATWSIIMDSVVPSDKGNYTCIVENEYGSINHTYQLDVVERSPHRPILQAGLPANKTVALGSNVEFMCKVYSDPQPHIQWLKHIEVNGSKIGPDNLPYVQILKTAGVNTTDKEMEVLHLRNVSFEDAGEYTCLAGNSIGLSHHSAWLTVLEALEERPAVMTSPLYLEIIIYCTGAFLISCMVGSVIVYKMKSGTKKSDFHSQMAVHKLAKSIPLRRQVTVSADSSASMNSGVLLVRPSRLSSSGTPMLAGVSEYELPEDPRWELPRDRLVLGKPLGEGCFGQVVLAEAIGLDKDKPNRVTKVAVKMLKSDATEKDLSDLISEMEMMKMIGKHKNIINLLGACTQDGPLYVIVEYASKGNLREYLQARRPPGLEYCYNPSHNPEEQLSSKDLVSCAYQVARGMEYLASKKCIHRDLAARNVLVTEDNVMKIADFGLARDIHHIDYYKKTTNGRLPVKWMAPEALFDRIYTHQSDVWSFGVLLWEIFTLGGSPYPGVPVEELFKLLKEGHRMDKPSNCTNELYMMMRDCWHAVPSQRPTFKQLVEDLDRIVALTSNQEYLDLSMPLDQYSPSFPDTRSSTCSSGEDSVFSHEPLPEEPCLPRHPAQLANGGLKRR
Sequence of KDR (h) (P35968 20-1356): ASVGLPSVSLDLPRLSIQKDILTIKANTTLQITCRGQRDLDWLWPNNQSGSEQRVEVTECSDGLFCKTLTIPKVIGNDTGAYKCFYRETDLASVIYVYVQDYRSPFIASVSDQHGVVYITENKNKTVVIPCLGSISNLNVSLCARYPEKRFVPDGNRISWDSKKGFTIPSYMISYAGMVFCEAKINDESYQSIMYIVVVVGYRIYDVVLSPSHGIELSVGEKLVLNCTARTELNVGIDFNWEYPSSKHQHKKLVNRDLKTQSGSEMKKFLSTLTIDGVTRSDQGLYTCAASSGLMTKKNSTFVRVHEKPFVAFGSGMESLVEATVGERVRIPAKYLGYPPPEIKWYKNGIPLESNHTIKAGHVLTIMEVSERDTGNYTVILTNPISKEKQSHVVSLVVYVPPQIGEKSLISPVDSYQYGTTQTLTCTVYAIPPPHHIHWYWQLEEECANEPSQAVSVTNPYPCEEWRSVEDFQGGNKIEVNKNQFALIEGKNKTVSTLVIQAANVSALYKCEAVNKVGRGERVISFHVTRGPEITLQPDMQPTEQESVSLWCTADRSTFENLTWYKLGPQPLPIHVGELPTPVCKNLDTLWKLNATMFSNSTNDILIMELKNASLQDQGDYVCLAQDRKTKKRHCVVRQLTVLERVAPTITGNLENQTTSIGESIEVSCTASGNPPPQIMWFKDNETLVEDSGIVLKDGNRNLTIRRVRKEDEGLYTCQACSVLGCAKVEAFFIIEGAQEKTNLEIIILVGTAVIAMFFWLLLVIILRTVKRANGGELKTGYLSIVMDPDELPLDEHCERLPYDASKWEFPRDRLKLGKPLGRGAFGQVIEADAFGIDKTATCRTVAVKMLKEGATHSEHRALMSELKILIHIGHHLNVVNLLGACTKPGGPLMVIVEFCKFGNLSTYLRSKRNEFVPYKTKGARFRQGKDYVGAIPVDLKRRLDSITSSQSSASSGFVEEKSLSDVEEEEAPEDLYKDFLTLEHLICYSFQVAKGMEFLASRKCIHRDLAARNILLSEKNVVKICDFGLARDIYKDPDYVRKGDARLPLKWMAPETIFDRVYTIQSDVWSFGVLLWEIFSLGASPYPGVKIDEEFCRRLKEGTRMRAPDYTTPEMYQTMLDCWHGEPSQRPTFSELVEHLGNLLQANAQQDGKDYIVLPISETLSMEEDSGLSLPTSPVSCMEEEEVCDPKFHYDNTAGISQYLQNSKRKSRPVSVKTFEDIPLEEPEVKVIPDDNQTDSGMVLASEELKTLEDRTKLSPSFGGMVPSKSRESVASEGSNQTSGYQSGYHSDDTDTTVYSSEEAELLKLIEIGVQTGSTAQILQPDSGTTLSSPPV
Sequence of FGFR3 (h) (P22607 23-806): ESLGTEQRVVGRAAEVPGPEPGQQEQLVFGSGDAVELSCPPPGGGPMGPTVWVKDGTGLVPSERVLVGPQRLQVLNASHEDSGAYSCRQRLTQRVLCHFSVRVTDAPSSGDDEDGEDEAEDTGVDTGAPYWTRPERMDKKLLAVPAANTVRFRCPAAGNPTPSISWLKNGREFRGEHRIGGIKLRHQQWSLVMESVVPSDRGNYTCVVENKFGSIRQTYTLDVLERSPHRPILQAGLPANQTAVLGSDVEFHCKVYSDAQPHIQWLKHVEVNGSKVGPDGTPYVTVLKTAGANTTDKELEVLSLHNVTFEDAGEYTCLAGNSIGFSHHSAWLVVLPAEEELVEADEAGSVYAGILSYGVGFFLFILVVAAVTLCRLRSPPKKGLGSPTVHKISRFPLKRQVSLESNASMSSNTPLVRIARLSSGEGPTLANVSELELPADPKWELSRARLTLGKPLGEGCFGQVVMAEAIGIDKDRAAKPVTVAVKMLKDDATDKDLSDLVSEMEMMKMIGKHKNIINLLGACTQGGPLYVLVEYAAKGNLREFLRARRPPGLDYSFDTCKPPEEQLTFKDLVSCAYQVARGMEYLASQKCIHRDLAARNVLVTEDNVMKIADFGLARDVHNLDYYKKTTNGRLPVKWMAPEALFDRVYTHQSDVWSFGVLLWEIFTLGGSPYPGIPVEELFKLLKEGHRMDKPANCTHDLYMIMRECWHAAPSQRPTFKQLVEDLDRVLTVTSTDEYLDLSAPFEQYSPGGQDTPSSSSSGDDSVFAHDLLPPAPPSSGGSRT
Sequence of FGFR2 (h) (P21802 22-821): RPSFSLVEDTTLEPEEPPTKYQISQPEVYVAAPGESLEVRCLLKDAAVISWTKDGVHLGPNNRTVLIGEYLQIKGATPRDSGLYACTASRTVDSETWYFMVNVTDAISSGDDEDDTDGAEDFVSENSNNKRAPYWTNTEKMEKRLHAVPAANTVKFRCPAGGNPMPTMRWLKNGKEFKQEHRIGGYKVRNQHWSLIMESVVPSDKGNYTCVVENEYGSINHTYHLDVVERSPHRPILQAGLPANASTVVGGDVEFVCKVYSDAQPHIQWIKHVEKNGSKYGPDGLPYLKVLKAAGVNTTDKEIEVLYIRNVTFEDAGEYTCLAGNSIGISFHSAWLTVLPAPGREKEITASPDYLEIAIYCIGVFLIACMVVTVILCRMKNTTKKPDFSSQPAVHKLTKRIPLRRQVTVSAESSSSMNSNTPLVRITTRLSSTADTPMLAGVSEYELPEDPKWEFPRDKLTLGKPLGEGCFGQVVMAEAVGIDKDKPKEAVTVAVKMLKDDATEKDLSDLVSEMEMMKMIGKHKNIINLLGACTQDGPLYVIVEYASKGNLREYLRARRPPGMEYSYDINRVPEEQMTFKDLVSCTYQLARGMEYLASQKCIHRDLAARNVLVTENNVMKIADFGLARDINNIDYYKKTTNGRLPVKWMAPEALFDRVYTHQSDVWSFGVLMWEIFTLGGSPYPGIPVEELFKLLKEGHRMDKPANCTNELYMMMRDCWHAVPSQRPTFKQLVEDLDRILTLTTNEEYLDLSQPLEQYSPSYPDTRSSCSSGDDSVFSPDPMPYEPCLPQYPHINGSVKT

| Structure (SMILES) | melting point | IC50 (FGFR3 (h)) | IC50 (KDR (h)) | IC50 (FGFR2 (h)) | BAF3-FGFR 4 (pIC50) [1] | BAF3-FGFR1 (MIN IL3 pIC50) [2] | BAF3-FGFR3 (MIN IL3 Alamar Blue- pIC50) [3] | BAF3-KDR (MIN IL3 Alamar Blue pIC50) [4] | IC50 (FGFR4 (h)) | IC50 (FGFR1 (h)) | IC50 [5] | IC50 [6] |
| --- | --- | --- | --- | --- | --- | --- | --- | --- | --- | --- | --- | --- |
| C#CCN(c1ccc2ncc(-c3cnn(C)c3)cc2c1)c1cc(OC)cc(OC)c1F | 120 °C | – | – | – | – | – | – | – | – | – | – | – |
| COc1cc(OC)cc(N(CCCN2CCCC2=O)c2ccc3ncc(-c4cnn(C)c4)cc3c2)c1 (as salt: HCl) (hydrate or solvate) [Compound 10] | 142 °C | – | – | – | – | – | – | – | – | – | – | – |
| COc1cc(OC)cc(N(CCNC(C)C)c2ccc3ncc(-c4cnn(CCO)c4)cc3c2)c1 (as salt: HCl) (hydrate or solvate) [Compound 13] | 86 to 115 °C | – | – | – | – | – | – | – | – | – | – | – |
| COc1cc(OC)cc(C(CCNC(C)C)c2ccc3ncc(-c4cnn(C)c4)cc3c2)c1 (stereo not shown) (as salt: HCl) [Compound 41] | > 300 °C | – | – | – | – | – | – | – | – | – | – | – |
| COc1cc(OC)cc(/C(=C/C#N)c2ccc3ncc(-c4cnn(C)c4)cc3c2)c1 [Compound 29] | 86 °C | 4.57e-08 M | 5.62e-07 M | ~6.76e-08 M | <5 | 5.45 | 5.29 | 5.15 | – | – | – | – |
| COc1cc(OC)cc(C(CCO)c2ccc3ncc(-c4cnn(C)c4)cc3c2)c1 (stereo not shown) [Compound 34] | 131 °C | 2.14e-08 M | > 1e-06 M | 1.86e-07 M | <5 | 5.01 | 5.16 | <5 | 4.17e-07 M | – | > 10000 nM | > 10000 nM |
| COc1cc(OC)cc(C(CC#N)c2ccc3ncc(-c4cnn(C)c4)cc3c2)c1 (stereo not shown) [Compound 39] | 172 °C | 1.78e-07 M | > 1e-06 M | 2.82e-07 M | <5 | 5.09 | <5 | <5 | > 1e-06 M | – | > 10000 nM | > 10000 nM |
| COc1cc(OC)c(F)c(N(CCNC(C)C)c2ccc3ncc(-c4cnn(C)c4)cc3c2)c1F [Compound 42] | 75 °C | 3.39e-09 M | 1.58e-08 M | 3.16e-09 M | 8.25 | 8.95 | 8.25 | 6.95 | 2.88e-09 M | 1.15e-09 M | > 10000 nM | > 10000 nM |

Continued, in another order:

| melting point | IC50 (FGFR3 (h)) | IC50 (KDR (h)) | IC50 (FGFR2 (h)) | BAF3-FGFR 4 (pIC50) [1] | BAF3-FGFR1 (MIN IL3 pIC50) [2] | BAF3-FGFR3 (MIN IL3 Alamar Blue- pIC50) [3] | BAF3-KDR (MIN IL3 Alamar Blue pIC50) [4] | IC50 (FGFR4 (h)) | IC50 (FGFR1 (h)) | Structure (SMILES) | IC50 [5] | IC50 [6] |
| --- | --- | --- | --- | --- | --- | --- | --- | --- | --- | --- | --- | --- |
| 180 °C | – | – | – | – | – | – | – | – | – | CNCCN(c1ccc2ncc(-c3cnn(C)c3)cc2c1)c1c(F)c(OC)cc(OC)c1F (as salt: HCl) [Compound 43] | – | – |
| 111 °C | 5.75e-08 M | > 1e-06 M | 5.5e-08 M | <5 | 5.11 | 5.19 | <5 | 2.57e-07 M | 6.92e-08 M | COc1cc(OC)cc(N(CCO)c2ccc3ncc(-c4ccccc4)cc3c2)c1 [Compound 50] | > 10000 nM | > 10000 nM |
| 133 °C | 8.51e-09 M | 9.33e-07 M | 6.61e-09 M | 5.48 | 5.77 | 6.00 | <5 | 1.66e-08 M | 1.58e-08 M | COc1cc(OC)cc(N(Cc2ncc[nH]2)c2ccc3ncc(-c4ccccc4)cc3c2)c1 [Compound 52] | – | – |
| – | 1.45e-07 M | > 1e-06 M | 1.82e-07 M | <5 | <5 | 5.16 | <5 | > 1e-06 M | 3.8e-07 M | COc1cc(OC)cc(N(CCO)c2ccc3ncc(N4CCOCC4)cc3c2)c1 [Compound 54] | > 10000 nM | > 10000 nM |
| 158 °C | 2.69e-09 M | 1.91e-07 M | ~1.26e-08 M | 5.66 | 6.02 | 5.84 | 5.40 | 2.09e-08 M | – | COc1cc(OC)cc(N(CCO)c2ccc3ncc(-c4ccn(C)c4)cc3c2)c1 [Compound 61] | > 10000 nM | > 10000 nM |
